Laboratory results reported in patent US20240148821A1, “PHARMACEUTICAL USE OF CYCLIC PEPTIDE COMPOUND” (CHUGAI SEIYAKU KABUSHIKI KAISHA, priority 2021, published 2024).
Numbered stars: 1 amine (or outer) side, 2 acyl side, 3 side chain; on linkers, the order of the positions; unused ones are H or OH. Bridge positions count the residues as written; N and C are the ends. Square brackets hold non-standard residues; d marks the D form. Peptide text beside a SMILES is read from it. * marks the point of attachment. hPhe(3-Cl-4-CF3) = N[C@@H](CCc1ccc(C(F)(F)F)c(Cl)c1)C(=O)O; hPhe(3-F,4-CF3) = N[C@@H](CCc1ccc(C(F)(F)F)c(F)c1)C(=O)O; NEtPhe(4-CF3) = CCN[C@@H](Cc1ccc(C(F)(F)F)cc1)C(=O)O; 3Oxa8azabicyclo(3.2.1)octane = C1CC2COCC1N2*; NMePhe(4-Cl) = CN[C@@H](Cc1ccc(Cl)cc1)C(=O)O; NMeNle(6-CHF2) = CN[C@@H](CCCCC(F)F)C(=O)O; hPhe(3-Cl) = N[C@@H](CCc1cccc(Cl)c1)C(=O)O; NMedβ3hAla = C[C@H](CC(=O)[*:2])N(C)[*:1]; NMeGly(cPent) = CN[C@H](C(=O)O)C1CCCC1; Pro(4,4-F2) = O=C(O)[C@@H]1CC(F)(F)CN1; X38 = CN1CCN(CCN(CC(=O)[*:2])[*:1])CC1; NMeCha = CN[C@@H](CC1CCCCC1)C(=O)O; NMehLeu = CN[C@@H](CCC(C)C)C(=O)O; NMeChg = CN[C@H](C(=O)O)C1CCCCC1; NMeF = CN[C@@H](Cc1ccccc1)C(=O)O; NMeD = CN[C@@H](CC(=O)O)C(=O)O; CH2CONHtBu = CC(C)(C)NC(=O)C*; NMeL = CN[C@@H](CC(C)C)C(=O)O; NMeNle = CCCC[C@H](NC)C(=O)O; NMeV = CN[C@H](C(=O)O)C(C)C; d(β3hA) = C[C@@H](N)CC(=O)O; NMeS = CN[C@@H](CO)C(=O)O; Morpholide = C1CN(*)CCO1; NMeA = CN[C@@H](C)C(=O)O; Piperidide = C1CCN(*)CC1; Ac5c = NC1(C(=O)O)CCCC1; Aze = O=C(O)[C@@H]1CCN1; Ac4c = NC1(C(=O)O)CCC1; Aib = CC(C)(N)C(=O)O; NEtG = CCNCC(=O)O; Sar = CNCC(=O)O; Propyl = CCC*

The compounds below were run against protein-protein interaction between Kras and SOS1 (biotin-tagged human Kras loaded with GDP, His-tagged human SOS1) (Homo sapiens (Human), UniProt P01116, G12D) (assay: Protein-protein interaction inhibition between Kras and SOS1 (KrasG12D-SOS PPI) using AlphaScreen). Conditions: AlphaScreen; biotin-tagged human Kras loaded with GDP, His-tagged human SOS1; read-out: KRAS G12D-SOS PPI IC50.
Format: biochemical
Compound `CC[C@H](C)[C@@H]1NC(=O)[C@H](CCCCC(F)F)N(C)C(=O)C[C@@H](C(=O)N2CCCCC2)N(C)C(=O)[C@H](C(C)C)N(C)C(=O)C2(CCCC2)NC(=O)[C@@H]2CCCN2C(=O)[C@H](CCc2ccc(C(F)(F)F)c(Cl)c2)NC(=O)CN(C)C(=O)[C@H](CC2CCCCC2)N(C)C(=O)[C@@H]2CCN2C(=O)[C@H](C)N(C)C1=O` [Compound 94] ([NMeNle(6-CHF2)]I[NMeA][Aze][NMeCha][Sar][hPhe(3-Cl-4-CF3)]P[Ac5c][NMeV][NMeD]-Piperidide; lactam N-11) has an IC50 of 3.3 nM.
Compound `CCCOC[C@H]1C(=O)N(C)CC(=O)N[C@@H](CCc2ccc(C(F)(F)F)c(Cl)c2)C(=O)N2CCC[C@H]2C(=O)NC2(CCCC2)C(=O)N(C)[C@@H](C2CCCC2)C(=O)N(C)[C@H](C(=O)N2C3CCC2COC3)CC(=O)N(C)[C@@H](CCC(C)C)C(=O)N[C@@H]([C@@H](C)CC)C(=O)N(C)[C@@H](C)C(=O)N2CC[C@H]2C(=O)N1C` [Compound 1154] ([NMehLeu]I[NMeA][Aze][NMeS](Propyl)[Sar][hPhe(3-Cl-4-CF3)]P[Ac5c][NMeGly(cPent)][NMeD]-{3Oxa8azabicyclo(3.2.1)octane}; lactam N-11) has an IC50 of 2.4 nM.
`CC[C@H](C)[C@@H]1NC(=O)[C@H](CC(C)C)N(C)C(=O)C[C@@H](C(=O)N2CCOCC2)N(C)C(=O)[C@H](C2CCCC2)N(C)C(=O)C2(CCCC2)NC(=O)[C@@H]2CCCN2C(=O)[C@H](CCc2ccc(C(F)(F)F)c(Cl)c2)NC(=O)CN(CC)C(=O)[C@H](C2CCCC2)N(C)C(=O)[C@@H]2CCN2C(=O)[C@H](C)N(C)C1=O` [Compound 1142] ([NMeL]I[NMeA][Aze][NMeGly(cPent)][NEtG][hPhe(3-Cl-4-CF3)]P[Ac5c][NMeGly(cPent)][NMeD]-Morpholide; lactam N-11) was tested, and the IC50 was 6.5 nM.
With `CC[C@H](C)[C@@H]1NC(=O)[C@H](CC(C)C)N(C)C(=O)C[C@@H](C(=O)N2CCCCC2)N(C)C(=O)[C@H](C2CCCCC2)N(C)C(=O)C2(CCCC2)NC(=O)[C@@H]2CCCN2C(=O)[C@H](CCc2ccc(C(F)(F)F)c(Cl)c2)NC(=O)CN(C)C(=O)[C@H](CC2CCCCC2)N(C)C(=O)[C@@H]2CCN2C(=O)[C@H](C)N(C)C1=O` [Compound 249] ([NMeL]I[NMeA][Aze][NMeCha][Sar][hPhe(3-Cl-4-CF3)]P[Ac5c][NMeChg][NMeD]-Piperidide; lactam N-11) the IC50 was 1.6 nM.
`CC[C@H](C)[C@@H]1NC(=O)[C@H](C)N(C)C(=O)C[C@@H](C)NC(=O)[C@H](CC(C)C)N(C)C(=O)[C@H](Cc2ccccc2)N(C)C(=O)[C@H](CC(C)C)NC(=O)[C@H](CCc2ccc(C(F)(F)F)c(F)c2)NC(=O)CN(C)C(=O)[C@H](Cc2ccc(Cl)cc2)N(C)C(=O)CN(C)C(=O)CN(C)C1=O` [Compound 2093] (cyclo(I[Sar][Sar][NMePhe(4-Cl)][Sar][hPhe(3-F,4-CF3)]L[NMeF][NMeL][d(β3hA)][NMeA])) showed an IC50 of 37 nM.
`CCCC[C@H]1C(=O)N2CC[C@H]2C(=O)N(C)[C@@H](CC2CCCCC2)C(=O)N(C)CC(=O)N[C@@H](CCc2ccc(C(F)(F)F)c(Cl)c2)C(=O)N2CCC[C@H]2C(=O)NC2(CCCC2)C(=O)N(C)[C@@H](C(C)C)C(=O)N[C@H](C)CC(=O)N(C)[C@@H](CC(C)C)C(=O)N[C@@H]([C@@H](C)CC)C(=O)N1C` [Compound 1548] (cyclo([Ac5c][NMeV][d(β3hA)][NMeL]I[NMeNle][Aze][NMeCha][Sar][hPhe(3-Cl-4-CF3)]P)) was tested, and the IC50 was 140 nM.
In the case of `CC[C@H](C)[C@@H]1NC(=O)[C@H](C)N(C)C(=O)C[C@@H](C)NC(=O)[C@H](CC(C)C)N(C)C(=O)C(C)(C)NC(=O)[C@H](CC(C)C)N(C)C(=O)[C@H](CCc2cccc(Cl)c2)NC(=O)CN(C)C(=O)[C@H](Cc2ccc(Cl)cc2)N(C)C(=O)CN(C)C(=O)CN(C)C1=O` [Compound 153] (cyclo([Aib][NMeL][d(β3hA)][NMeA]I[Sar][Sar][NMePhe(4-Cl)][Sar][hPhe(3-Cl)][NMeL])), the IC50 is reported as 60 nM.
`CC[C@H](C)[C@@H]1NC(=O)[C@H](CC(C)C)N(C)C(=O)C[C@@H](C(=O)N2CCCCC2)N(C)C(=O)[C@H](C2CCCCC2)N(C)C(=O)C2(CCCC2)NC(=O)CN(CCN2CCN(C)CC2)C(=O)[C@H](CCc2ccc(C(F)(F)F)c(Cl)c2)NC(=O)CN(C)C(=O)[C@H](CC2CCCCC2)N(C)C(=O)CN(C)C(=O)CN(C)C1=O` [Compound 2180, (11S,17S,26S,29S,33S,36S)-11-[2-[3-chloro-4-(trifluoromethyl)phenyl]ethyl]-36-cyclohexyl-17-(cyclohexylmethyl)-29-isobutyl-15,18,21,24,30,34,37-heptamethyl-9-[2-(4-methylpiperazin-1-yl)ethyl]-26-[(1S)-1-methylpropyl]-33-(piperidine-1-carbonyl)-6,9,12,15,18,21,24,27,30,34,37-undecazaspiro[4.33]octatriacontane-7,10,13,16,19,22,25,28,31,35,38-undecone] ([NMeL]I[Sar][Sar][NMeCha][Sar][hPhe(3-Cl-4-CF3)][X38][Ac5c][NMeChg][NMeD]-Piperidide; lactam N-11) gave an IC50 of 0.93 nM.
For `CC[C@H](C)[C@@H]1NC(=O)[C@H](CC(C)C)N(C)C(=O)C[C@@H](C(=O)N2CCCCC2)N(C)C(=O)[C@H](C(C)C)N(C)C(=O)C2(CCCC2)NC(=O)[C@@H]2CCCN2C(=O)[C@H](CCc2ccc(C(F)(F)F)c(Cl)c2)NC(=O)CN(C)C(=O)[C@H](CC2CCCCC2)N(C)C(=O)[C@@H]2CCN2C(=O)[C@H](CC(C)C)N(C)C1=O` [Compound 1558] ([NMeL]I[NMeL][Aze][NMeCha][Sar][hPhe(3-Cl-4-CF3)]P[Ac5c][NMeV][NMeD]-Piperidide; lactam N-11), the IC50 was 71 nM.
Work on `CC[C@H](C)[C@@H]1NC(=O)[C@H](CC(C)C)N(C)C(=O)C[C@@H](C)NC(=O)[C@H](C(C)C)N(C)C(=O)C2(CCCC2)NC(=O)[C@@H]2CCCN2C(=O)[C@H](CCc2ccc(C(F)(F)F)c(Cl)c2)NC(=O)CN(C)C(=O)[C@H](CC2CCCCC2)N(C)C(=O)[C@@H]2CCN2C(=O)[C@H](COCC(=O)NC(C)(C)C)N(C)C1=O` [Compound 70] (cyclo([Ac5c][NMeV][d(β3hA)][NMeL]I[NMeS](CH2CONHtBu)[Aze][NMeCha][Sar][hPhe(3-Cl-4-CF3)]P)) yielded an IC50 of 160 nM.
`CC[C@H](C)[C@@H]1NC(=O)[C@H](CC(C)C)N(C)C(=O)C[C@@H](C)N(C)C(=O)[C@H](C2CCCCC2)N(C)C(=O)C2(CCC2)NC(=O)[C@@H]2CC(F)(F)CN2C(=O)[C@H](CCc2ccc(C(F)(F)F)c(Cl)c2)NC(=O)CN(C)C(=O)[C@H](Cc2ccc(C(F)(F)F)cc2)N(CC)C(=O)[C@@H]2CCN2C(=O)[C@H](C)NC1=O` [Compound 138] (cyclo(A[Aze][NEtPhe(4-CF3)][Sar][hPhe(3-Cl-4-CF3)][Pro(4,4-F2)][Ac4c][NMeChg][NMedβ3hAla][NMeL]I)) showed an IC50 of 44 nM.
`CC[C@H](C)[C@@H]1NC(=O)[C@H](CC(C)C)N(C)C(=O)C[C@@H](C)N(C)C(=O)[C@H](C2CCCC2)N(C)C(=O)C2(CCCC2)NC(=O)[C@@H]2CCCN2C(=O)[C@H](CCc2ccc(C(F)(F)F)c(Cl)c2)NC(=O)CN(C)C(=O)[C@H](CC2CCCCC2)N(C)C(=O)[C@@H]2CCN2C(=O)[C@H](C)N(C)C1=O` [Compound 1717] (cyclo([Ac5c][NMeGly(cPent)][NMedβ3hAla][NMeL]I[NMeA][Aze][NMeCha][Sar][hPhe(3-Cl-4-CF3)]P)) was tested, and the IC50 was 3.3 nM.
